For two molecules, bioavailability and Papp results are on record in ChEMBL document CHEMBL4396919, “Permeability of Cyclic Peptide Macrocycles and Cyclotides and Their Potential as Therapeutics” (ACS Med Chem Lett, 2019).

Structures are written as SMILES. *1 amine or outer side, *2 acyl side, *3 side chain or, on linkers, in order; H or OH if unused. Where a SMILES comes first, the peptide text is derived from it. [ ]: non-standard residue; d: D form. Ile(ψThz) = CC[C@H](C)[C@H](N[*:1])c1nc(C(=O)[*:2])cs1; NMeF = CN[C@@H](Cc1ccccc1)C(=O)O; Tle = CC(C)(C)[C@H](N)C(=O)O

Data set [1] in a line: in vivo. Particulars: Wistar, rat, po, 10 mg/kg.
A short description of data set [2]: in vitro. Particulars: dog, MDCK.
Description: Permeability in RRCK cells

The molecule `CC[C@H](C)[C@@H]1NC(=O)[C@@H]2CCCN2C(=O)[C@H](Cc2ccccc2)N(C)C(=O)[C@H](C(C)(C)C)NC(=O)c2csc(n2)[C@H]([C@@H](C)CC)NC(=O)[C@@H]2CCCN2C1=O` (cyclo(IP[Ile(ψThz)][Tle][NMeF]P)) came in with a bioavailability at 8 h in data set [1] of 21%.

In data set [2], `CC[C@H](C)[C@@H]1NC(=O)[C@@H]2CCCN2C(=O)[C@H](Cc2ccccc2)NC(=O)[C@H](C)NC(=O)c2csc(n2)[C@H]([C@@H](C)CC)NC(=O)[C@@H]2CCCN2C1=O` (cyclo(AFPIP[Ile(ψThz)])) gave a Papp of 7 nm/s. The bioavailability at 8 h in data set [1] came to 7%.

By bioavailability is commonly meant dose-corrected exposure relative to a reference, in per cent. A lower bioavailability goes with little systemic uptake. What is called Papp is a coefficient for how fast a substance crosses the barrier.
